Like-named read-outs stand apart in the source and are kept apart here.
Columns and labels:
A431 = assay: Cell proliferation IC50 assay (Cell Titer GLO), A431 cells; type: cell-based; conditions: Homo sapiens
Experimental: (§1) IC50 of compounds in the present invention was determined by Cell Titer GLO reagent from Promega. The procedures are as follows:
(§2) Tumor cells were cultured in specified medium in an incubator at 37° C. and 5% CO2. The cells were passaged periodically. Cells at the logarithmic growth phase were collected for plating at a density of 2000-4000 cells/well. The next day, the compounds of the present invention were serially diluted and added to the cells, with DMSO being the negative control and the culture media without cells being the blank control. The plate was incubated in the incubator for 72 h. The cell viability assay was performed by adding the detection reagents to the cell culture media according to Cell Titer GLO reagent instructions and detecting luminescent signals on an EnVision microplate reader (PerkinElmer).
(§3) Inhibition of cell growth by the compounds of the present invention was plotted by Prism Graphpad software for statistically calculating the IC50 of the compound of the present invention.

BaF3 (EGFR WT) = assay: Cell proliferation IC50 assay (Cell Titer GLO), BaF3 WT cells; type: cell-based; conditions: Mus musculus, Ba/F3 EGFR, Table 6, 10 ng/ml EGF, 72 h
Experimental: as §1, §2, §3

[1] = system: BaF3 (EGFR Del19/T790M/C797S); assay: Cell proliferation IC50 assay (Cell Titer GLO), BaF3 DTC cells; type: cell-based; conditions: Mus musculus, Ba/F3 EGFR-Del19/T790M/C797S, Table 6, 72 h
Experimental: as §1, §2, §3

BaF3 (EGFR Del19/C797S) = target: T1, BaF3 (EGFR Del19/C797S) (Homo sapiens, UniProt P00533, C797S, cells depend on it, form not given); assay: Cell proliferation IC50 assay (Cell Titer GLO), BaF3 DC cells; type: cell-based, mouse; conditions: Table 6, 72 h
T1 construct: BaF3 (EGFR Del19/C797S)|DC|RPMI1640 + 10% FBS
T1 sequence (P00533 with tags, fused parts or gaps DEL746-750/C797S, form open): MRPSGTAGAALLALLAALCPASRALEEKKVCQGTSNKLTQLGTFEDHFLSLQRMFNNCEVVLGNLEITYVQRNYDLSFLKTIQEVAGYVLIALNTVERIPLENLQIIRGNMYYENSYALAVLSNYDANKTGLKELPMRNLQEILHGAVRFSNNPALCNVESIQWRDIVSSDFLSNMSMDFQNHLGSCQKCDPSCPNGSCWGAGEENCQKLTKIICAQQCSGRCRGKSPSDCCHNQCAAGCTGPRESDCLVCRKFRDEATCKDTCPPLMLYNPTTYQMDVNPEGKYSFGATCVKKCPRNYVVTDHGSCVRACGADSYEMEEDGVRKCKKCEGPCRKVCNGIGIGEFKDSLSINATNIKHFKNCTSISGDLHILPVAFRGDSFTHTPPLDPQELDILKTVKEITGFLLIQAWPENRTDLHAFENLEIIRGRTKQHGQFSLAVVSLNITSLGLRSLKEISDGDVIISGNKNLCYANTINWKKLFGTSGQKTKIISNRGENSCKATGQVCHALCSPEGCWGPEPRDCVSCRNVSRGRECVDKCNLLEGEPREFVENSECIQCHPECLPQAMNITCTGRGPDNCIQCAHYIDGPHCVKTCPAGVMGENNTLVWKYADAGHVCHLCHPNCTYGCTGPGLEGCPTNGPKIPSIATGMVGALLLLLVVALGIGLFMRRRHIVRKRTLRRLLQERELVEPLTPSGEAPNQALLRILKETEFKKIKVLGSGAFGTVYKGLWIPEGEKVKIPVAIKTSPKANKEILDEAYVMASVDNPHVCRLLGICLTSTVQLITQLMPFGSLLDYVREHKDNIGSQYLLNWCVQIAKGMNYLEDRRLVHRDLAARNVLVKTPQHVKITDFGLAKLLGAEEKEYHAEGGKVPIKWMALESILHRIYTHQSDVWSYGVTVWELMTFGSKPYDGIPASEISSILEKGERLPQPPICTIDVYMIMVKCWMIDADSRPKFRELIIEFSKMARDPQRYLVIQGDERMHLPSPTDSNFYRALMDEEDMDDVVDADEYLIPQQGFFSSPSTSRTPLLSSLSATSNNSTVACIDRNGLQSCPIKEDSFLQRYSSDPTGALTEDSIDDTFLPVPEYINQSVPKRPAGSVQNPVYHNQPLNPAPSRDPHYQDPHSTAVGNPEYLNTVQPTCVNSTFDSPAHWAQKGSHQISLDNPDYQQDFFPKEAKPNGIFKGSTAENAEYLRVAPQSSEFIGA
Experimental: as §1, §2, §3

[2] = system: BaF3 (EGFR L858R/T790M/C797S); assay: Cell proliferation IC50 assay (Cell Titer GLO), BaF3 LTC cells; type: cell-based; conditions: Mus musculus, Ba/F3 EGFR, Table 6, 72 h
Experimental: as §1, §2, §3

[3] = A-431, Table 6, A431, 72 h, read-out: A431 IC50
[4] = A-431, 72 h, read-out: A431 IC50 (nM)

| Compound | IC50 (A431; [3]) | IC50 (BaF3 (EGFR WT)) | IC50 [1] | IC50 (BaF3 (EGFR Del19/C797S)) | IC50 [2] | IC50 (A431; [4]) |
| --- | --- | --- | --- | --- | --- | --- |
| COc1cc(N2CCC(N3CCc4cc(Oc5cccc6c5CN(C5CCC(=O)NC5=O)C6=O)ccc4C3)CC2)c(C2CC2)cc1Nc1ncc(Cl)c(Nc2ccccc2P(C)(C)=O)n1 (centres unmarked) [Example E75] | > 4000 nM | 80.3 nM | 26.3 nM | 20.2 nM | 64.2 nM |  |
| CCc1cc(Nc2ncc(Cl)c(Nc3ccccc3P(C)(C)=O)n2)cc(Cl)c1N1CCC(N2CCN(CCC#Cc3cccc4c3CN(C3CCC(=O)NC3=O)C4=O)CC2)CC1 (centres unmarked) [Example E77] | 651 nM | 67.6 nM | 16.3 nM | 13.5 nM | 44.6 nM |  |
| CCc1cc(Nc2ncc(Cl)c(Nc3ccccc3P(C)(C)=O)n2)c(OC)cc1N1CCC(N2CCN(C(=O)COc3cccc4c3CN(C3CCC(=O)NC3=O)C4=O)CC2)CC1 (centres unmarked) [Example E82] | 1780 nM | 781 nM | 17 nM |  | 162 nM |  |
| COc1cc2c(cc1Nc1ncc(Cl)c(Nc3ccccc3P(C)(C)=O)n1)CCN(C1CCN(CCCCOc3cccc4c3CN(C3CCC(=O)NC3=O)C4=O)CC1)C2 (centres unmarked) [Example E86] | 1670 nM | 212 nM | 40.7 nM | 33 nM | 197 nM |  |
| CCc1cc(Nc2ncc(Cl)c(Nc3ccccc3P(C)(C)=O)n2)c(OC)cc1N1CCC(N2CCN(CCCCOc3cccc4c3CN(C3CCC(=O)NC3=O)C4=O)C(=O)C2)CC1 (centres unmarked) [Example E87] | 3800 nM | > 4000 nM | 11.5 nM | 5.3 nM | 51.8 nM |  |
| CCc1cc(Nc2ncc(Cl)c(Nc3ccccc3P(C)(C)=O)n2)c(OC)cc1N1CCC2(CCN(CCCCOc3ccc(NC4CCC(=O)NC4=O)cc3)CC2)CC1 (centres unmarked) [Example E89] | 3650 nM | 1150 nM | 89.5 nM | 79.9 nM | 1040 nM |  |
| CCc1cc(Nc2ncc(-c3cnn(C)c3)c(Nc3ccccc3P(C)(C)=O)n2)c(OC)cc1N1CCC(N2CCN(Cc3ccc4c(c3)CN(C3CCC(=O)NC3=O)C4=O)CC2)CC1 (centres unmarked) [Example E217] | > 4000 nM | 623 nM |  | 0.9 nM | > 4000 nM |  |
| CCc1cc(Nc2ncc(-n3cnc(C)n3)c(Nc3ccccc3P(C)(C)=O)n2)c(OC)cc1N1CCC(N2CCN(CCOc3ccc4c(c3)CN(C3CCC(=O)NC3=O)C4=O)CC2)CC1 (centres unmarked) [Example E218] | > 4000 nM | 2090 nM |  | 1 nM | > 4000 nM |  |
| CCc1cc(Nc2ncc(-n3ccnn3)c(Nc3ccccc3P(C)(C)=O)n2)c(OC)cc1N1CCC(N2CCN(CCOc3ccc4c(c3)CN(C3CCC(=O)NC3=O)C4=O)CC2)CC1 (centres unmarked) [Example E220] | > 4000 nM | > 4000 nM |  | 4 nM | > 4000 nM |  |
| CCc1cc(Nc2ncc(-c3cnn(C)c3)c(Nc3ccccc3P(C)(C)=O)n2)c(OC)cc1N1CCC(N2CCN([C@H]3C[C@H](Oc4cc(F)cc5c4CN(C4CCC(=O)NC4=O)C5=O)C3)CC2)CC1 (some centres unmarked) [Example E222] | > 4000 nM | 133 nM |  | < 0.24 nM | 89.7 nM |  |
| CCc1cc(Nc2ncc(Cl)c(Nc3ccccc3P(C)(C)=O)n2)c(OC)cc1N1CCC(N2CCN(CCN(C)c3ccc4c(c3)CN(C3CCC(=O)NC3=O)C4=O)CC2)CC1 (centres unmarked) [Example E223] |  | > 4000 nM |  | 11.5 nM | 69.4 nM | > 4000 nM |
| CCc1cc(Nc2ncc(-c3cnn(C)c3)c(Nc3ccccc3P(C)(C)=O)n2)c(OC)cc1N1CCC(N2CCN(CCN(C)c3ccc4c(c3)CN(C3CCC(=O)NC3=O)C4=O)CC2)CC1 (centres unmarked) [Example E224] |  | 654 nM |  | 0.9 nM | > 4000 nM | > 4000 nM |

Reference: patent US20240408216A1, “PROTEIN INHIBITOR OR DEGRADING AGENT, PHARMACEUTICAL COMPOSITION CONTAINING SAME AND PHARMACEUTICAL USE” (JING MEDICINE TECHNOLOGY (SHANGHAI) LTD., priority 2021, published 2024)
